Data published in ChEMBL document CHEMBL4418493, “N-hydroxyformamide compounds and compositions comprising them for use as BMP1, TLL1 and/or TLL2 inhibitors” (2018).

Assays:
[1] = Reduction in mature collagen deposition levels in human cardiac fibroblasts incubated for 24 to 48 hrs by immunostaining based assay; type: functional
[2] = Reduction in PICP levels in human cardiac fibroblasts incubated for 24 to 48 hrs by ELISA; type: functional
[3] = Drug metabolism in heparinized pooled human plasma at pH 7.5 assessed as formation of (S)-2-(2-(carboxymethoxy)-4-(5-((((R)-2-((R)-1-(N-hydroxyformamido)propyl)heptanamido)methyl)carbamoyl)furan-2-yl)benzamido)succinic acid at 100 to 2000 ng/ml incubated up to 4 or 24 hrs by LC-MS/MS analysis; type: ADME, cell-free; settings: pH 7.5, 24 h
[4] = Drug metabolism in heparinized pooled human plasma at pH 7.5 assessed as formation of (S)-2-(2-ethoxy-4-(5-((((R)-2-((R)-1-(N-hydroxyformamido)propyl)heptanamido)methyl) carbamoyl)furan-2-yl)benzamido)succinic acid at 100 to 2000 ng/ml incubated up to 4 or 24 hrs by LC-MS/MS analysis; type: ADME, cell-free; settings: pH 7.5, 24 h
[5] = Stability in pH 7.96 assessed as compound purity level at 1 mg/ml heated to 40 degC and measured at 200 hrs by LC/MS analsysis; type: physicochemical; settings: buffer, read-out: Stability
[6] = Drug metabolism in heparinized pooled human plasma at pH 7.5 assessed as conversion to active compound at 100 to 2000 ng/ml incubated for 4 by LC-MS/MS analysis; type: ADME, cell-free
[7] = Drug metabolism in heparinized pooled human plasma at pH 7.5 assessed as formation of (3-ethoxy-5-(5-((((R)-2-((R)-1-(N-hydroxyformamido)propyl)heptanamido)methyl)carbamoyl) furan-2-yl)phenyl)phosphonic acid at 100 to 2000 ng/ml incubated up to 4 or 24 hrs by LC-MS/MS analysis; type: ADME, cell-free; settings: pH 7.5, 24 h

Row | Compound | IC50 [1] | IC50 [2] | Drug metabolism [3] | Drug metabolism [4] | remaining at 200 h, 1 mg/ml [5] | Drug metabolism [6] | Drug metabolism [7]
1 | CCCCC[C@@H](C(=O)NCNC(=O)c1ccc(-c2ccc(C(=O)N[C@@H](CC(=O)O)C(=O)O)c(OCC(=O)O)c2)o1)[C@@H](CC)N(C=O)OC(=O)c1ccc(OC)cc1C.N.N.N | < 1000 nM | < 3.98 µM | Metabolite_Detected | – | – | – | –
2 | CCCCC[C@@H](C(=O)NCNC(=O)c1ccc(-c2ccc(C(=O)N[C@@H](CC(=O)O)C(=O)O)c(OCC)c2)o1)[C@@H](CC)N(C=O)OC(=O)c1ccc(-n2cnnc2)cc1 | < 1000 nM | < 3.98 µM | – | Metabolite_Detected | – | – | –
3 | CCCCC[C@@H](C(=O)NCNC(=O)c1ccc(-c2ccc(C(=O)N[C@@H](CC(=O)O)C(=O)O)c(OCC(=O)O)c2)o1)[C@@H](CC)N(C=O)OC(=O)c1ccccc1O | – | – | Metabolite_Detected | – | < 80% | > 10% | –
4 | CCCCC[C@@H](C(=O)NCNC(=O)c1ccc(-c2ccc(C(=O)N[C@@H](CC(=O)O)C(=O)O)c(OCC)c2)o1)[C@@H](CC)N(C=O)OC(=O)c1ccc(OC)cc1OC(F)(F)F | < 1000 nM | < 3.98 µM | – | Metabolite_Detected | – | – | –
5 | CCCCC[C@@H](C(=O)NCNC(=O)c1ccc(-c2cc(OCC)cc(P(=O)(O)O)c2)o1)[C@@H](CC)N(C=O)OC(=O)Nc1ccccc1 | – | < 3.98 µM | – | – | – | – | Metabolite_Detected
6 | CCCCC[C@@H](C(=O)NCNC(=O)c1ccc(-c2cc(OCC)cc(P(=O)(O)O)c2)o1)[C@@H](CC)N(C=O)OC(=O)c1ccc(CN2CCOCC2)cc1C | – | < 3.98 µM | – | – | – | – | Metabolite_Detected
7 | CCCCC[C@@H](C(=O)NCNC(=O)c1ccc(-c2ccc(C(=O)N[C@@H](CC(=O)O)C(=O)O)c(OCC)c2)o1)[C@@H](CC)N(C=O)OC(=O)c1ccccc1C | < 1000 nM | < 3.98 µM | – | Metabolite_Detected | – | – | –
8 | CCCCC[C@@H](C(=O)NCNC(=O)c1ccc(-c2cc(OCC)cc(P(=O)(O)O)c2)o1)[C@@H](CC)N(C=O)OC(=O)c1ccc(CN2CCOCC2)cc1 | – | < 3.98 µM | – | – | – | – | Metabolite_Detected
9 | CCCCC[C@@H](C(=O)NCNC(=O)c1ccc(-c2cc(OCC)cc(P(=O)(O)O)c2)o1)[C@@H](CC)N(C=O)OC(=O)c1ccc2c(c1)OCCO2 | < 1000 nM | < 3.98 µM | – | – | – | – | Metabolite_Detected
10 | CCCCC[C@@H](C(=O)NCNC(=O)c1ccc(-c2cc(OCC)cc(P(=O)(O)O)c2)o1)[C@@H](CC)N(C=O)OCOP(=O)(O)O | – | – | – | – | – | > 10% | Metabolite_Detected
11 | CCCCC[C@@H](C(=O)NCNC(=O)c1ccc(-c2ccc(C(=O)N[C@@H](CC(=O)O)C(=O)O)c(OCC)c2)o1)[C@@H](CC)N(C=O)OC(=O)NC(C)(C)C | < 1000 nM | < 3.98 µM | – | Metabolite_Detected | – | – | –
12 | CCCCC[C@@H](C(=O)NCNC(=O)c1ccc(-c2ccc(C(=O)N[C@@H](CC(=O)O)C(=O)O)c(OCC)c2)o1)[C@@H](CC)N(C=O)OC(=O)NC(C)(C)c1ccccc1 | < 1000 nM | < 3.98 µM | – | Metabolite_Detected | – | – | –
13 | CCCCC[C@@H](C(=O)NCNC(=O)c1ccc(-c2cc(OCC)cc(P(=O)(O)O)c2)o1)[C@@H](CC)N(C=O)OC(=O)c1ccc2c(c1)N(C)CCO2.N.N | – | < 3.98 µM | – | – | – | – | Metabolite_Detected
14 | CCCCC[C@@H](C(=O)NCNC(=O)c1ccc(-c2cc(OCC)cc(P(=O)(O)O)c2)o1)[C@@H](CC)N(C=O)OC(=O)c1ccc(OC)cc1 | < 1000 nM | < 3.98 µM | – | – | – | – | Metabolite_Detected
15 | CCCCC[C@@H](C(=O)NCNC(=O)c1ccc(-c2ccc(C(=O)N[C@@H](CC(=O)O)C(=O)O)c(OCC)c2)o1)[C@@H](CC)N(C=O)OC(=O)c1ccc(O)cc1 | < 1000 nM | < 3.98 µM | – | Metabolite_Detected | – | – | –
16 | CCCCC[C@@H](C(=O)NCNC(=O)c1ccc(-c2ccc(C(=O)N[C@@H](CC(=O)O)C(=O)O)c(OCC)c2)o1)[C@@H](CC)N(C=O)OC(=O)c1ccc(OC)cc1OC | < 1000 nM | < 3.98 µM | – | Metabolite_Detected | – | – | –
17 | CCCCC[C@@H](C(=O)NCNC(=O)c1ccc(-c2ccc(C(=O)N[C@@H](CC(=O)O)C(=O)O)c(OCC)c2)o1)[C@@H](CC)N(C=O)OC(=O)c1ccccc1C(C)C | < 1000 nM | < 3.98 µM | – | Metabolite_Detected | – | – | –
18 | CCCCC[C@@H](C(=O)NCNC(=O)c1ccc(-c2ccc(C(=O)N[C@@H](CC(=O)O)C(=O)O)c(OCC)c2)o1)[C@@H](CC)N(C=O)OC(=O)Cc1ccccc1 | – | – | – | Metabolite_Detected | < 80% | > 10% | –

Row | Compound | IC50 [1] | IC50 [2] | Drug metabolism [3] | Drug metabolism [4] | remaining at 200 h, 1 mg/ml [5] | Drug metabolism [6] | Drug metabolism [7]
19 | CCCCC[C@@H](C(=O)NCNC(=O)c1ccc(-c2cc(OCC)cc(P(=O)(O)O)c2)o1)[C@@H](CC)N(C=O)OC(=O)c1ccc(OC)cc1C(C)C | – | < 3.98 µM | – | – | – | – | Metabolite_Detected
20 | CCCCC[C@@H](C(=O)NCNC(=O)c1ccc(-c2ccc(C(=O)N[C@@H](CC(=O)O)C(=O)O)c(OCC)c2)o1)[C@@H](CC)N(C=O)OC(=O)c1ccccc1 | – | < 3.98 µM | – | Metabolite_Detected | < 80% | > 10% | –
21 | CCCCC[C@@H](C(=O)NCNC(=O)c1ccc(-c2cc(OCC)cc(P(=O)(O)O)c2)o1)[C@@H](CC)N(C=O)OC(=O)c1ccc(OC)cc1C.N.N | – | < 3.98 µM | – | – | – | – | Metabolite_Detected
22 | CCCCC[C@@H](C(=O)NCNC(=O)c1ccc(-c2ccc(C(=O)N[C@@H](CC(=O)O)C(=O)O)c(OCC)c2)o1)[C@@H](CC)N(C=O)OC(=O)c1ccc(OC)cc1F | < 1000 nM | < 3.98 µM | – | Metabolite_Detected | – | – | –
23 | CCCCC[C@@H](C(=O)NCNC(=O)c1ccc(-c2ccc(C(=O)N[C@@H](CC(=O)O)C(=O)O)c(OCC)c2)o1)[C@@H](CC)N(C=O)OC(=O)c1cccc(-n2cccc2)c1 | < 1000 nM | < 3.98 µM | – | Metabolite_Detected | – | – | –
24 | CCCCC[C@@H](C(=O)NCNC(=O)c1ccc(-c2ccc(C(=O)N[C@@H](CC(=O)O)C(=O)O)c(OCC)c2)o1)[C@@H](CC)N(C=O)OC(=O)c1ccc(OC)cc1C(F)(F)F | < 1000 nM | < 3.98 µM | – | Metabolite_Detected | – | – | –
25 | CCCCC[C@@H](C(=O)NCNC(=O)c1ccc(-c2cc(OCC)cc(P(=O)(O)O)c2)o1)[C@@H](CC)N(C=O)OC(=O)c1ccc(N2CCCC2)c(F)c1.N.N | – | < 3.98 µM | – | – | – | – | Metabolite_Detected
26 | CCCCC[C@@H](C(=O)NCNC(=O)c1ccc(-c2ccc(C(=O)N[C@@H](CC(=O)O)C(=O)O)c(OCC)c2)o1)[C@@H](CC)N(C=O)OC(=O)c1ccc(N2CCCC2)c(F)c1.N.N | < 1000 nM | < 3.98 µM | – | Metabolite_Detected | – | – | –
27 | CCCCC[C@@H](C(=O)NCNC(=O)c1ccc(-c2cc(OCC)cc(P(=O)(O)O)c2)o1)[C@@H](CC)N(C=O)OC(=O)c1ccc(N2CCOCC2)cc1C.N.N | – | < 3.98 µM | – | – | – | – | Metabolite_Detected
28 | CCCCC[C@@H](C(=O)NCNC(=O)c1ccc(-c2ccc(C(=O)N[C@@H](CC(=O)O)C(=O)O)c(OCC)c2)o1)[C@@H](CC)N(C=O)OC(=O)OC(C)(C)C | < 1000 nM | < 3.98 µM | – | Metabolite_Detected | – | – | –
29 | CCCCC[C@@H](C(=O)NCNC(=O)c1ccc(-c2ccc(C(=O)N[C@@H](CC(=O)O)C(=O)O)c(OCC(=O)O)c2)o1)[C@@H](CC)N(C=O)OCOP(=O)(O)O | – | – | Metabolite_Detected | – | – | > 10% | –
30 | CCCCC[C@@H](C(=O)NCNC(=O)c1ccc(-c2ccc(C(=O)N[C@@H](CC(=O)O)C(=O)O)c(OCC)c2)o1)[C@@H](CC)N(C=O)OC(=O)c1c(C)ccnc1C | < 1000 nM | < 3.98 µM | – | Metabolite_Detected | – | – | –
31 | CCCCC[C@@H](C(=O)NCNC(=O)c1ccc(-c2cc(OCC)cc(P(=O)(O)O)c2)o1)[C@@H](CC)N(C=O)OC(=O)OC(C)(C)C | < 1000 nM | < 3.98 µM | – | – | – | – | Metabolite_Detected
32 | CCCCC[C@@H](C(=O)NCNC(=O)c1ccc(-c2cc(OCC)cc(P(=O)(O)O)c2)o1)[C@@H](CC)N(C=O)OC(=O)NC(C)C | – | < 3.98 µM | – | – | – | – | Metabolite_Detected
33 | CCCCC[C@@H](C(=O)NCNC(=O)c1ccc(-c2ccc(C(=O)N[C@@H](CC(=O)O)C(=O)O)c(OCC)c2)o1)[C@@H](CC)N(C=O)OC(=O)c1ccc(C(F)(F)F)cc1C | < 1000 nM | < 3.98 µM | – | Metabolite_Detected | – | – | –
34 | CCCCC[C@@H](C(=O)NCNC(=O)c1ccc(-c2ccc(C(=O)N[C@@H](CC(=O)OCOC(=O)C(C)C)C(=O)OCOC(=O)C(C)C)c(OCC)c2)o1)[C@@H](CC)N(O)C=O | < 1000 nM | < 3.98 µM | – | Metabolite_Detected | – | – | –
35 | CCCCC[C@@H](C(=O)NCNC(=O)c1ccc(-c2cc(OCC)cc(P(=O)(O)O)c2)o1)[C@@H](CC)N(C=O)OC(=O)c1c(C)cccc1OCOP(=O)(O)O.N.N.N.N | – | < 3.98 µM | – | – | – | – | Metabolite_Detected
36 | CCCCC[C@@H](C(=O)NCNC(=O)c1ccc(-c2ccc(C(=O)N[C@@H](CC(=O)O)C(=O)O)c(OCC(=O)O)c2)o1)[C@@H](CC)N(C=O)OC(=O)C(CC)CC | < 1000 nM | < 3.98 µM | Metabolite_Detected | – | – | – | –
